{"source": "paper PMC10175918", "about": "(Communications Biology, 2023)", "key": {"[1]": {"target": "T1, urotensin-II receptor (UTS2R) (Homo sapiens, UniProt Q9UKP6)", "T1 construct": "expressed in transfected cells; host or cells: HEK293A", "T1 sequence (Q9UKP6 1-389)": "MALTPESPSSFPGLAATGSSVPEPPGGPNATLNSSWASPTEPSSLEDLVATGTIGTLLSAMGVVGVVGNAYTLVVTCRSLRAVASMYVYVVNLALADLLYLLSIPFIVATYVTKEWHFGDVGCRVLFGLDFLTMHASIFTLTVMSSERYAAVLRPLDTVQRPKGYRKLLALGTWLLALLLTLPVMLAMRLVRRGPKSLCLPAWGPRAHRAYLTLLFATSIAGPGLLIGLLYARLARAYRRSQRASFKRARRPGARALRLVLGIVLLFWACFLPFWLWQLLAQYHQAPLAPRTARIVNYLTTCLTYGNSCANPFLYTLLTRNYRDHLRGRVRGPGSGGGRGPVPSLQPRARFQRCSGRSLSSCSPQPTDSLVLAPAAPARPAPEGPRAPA", "assay": "TGFα-shedding assay, concentration-response on UTS2R (endogenous G protein), with or without urantide", "type": "cell-based", "settings": "for UTS2R activation: TGFα-shedding, screening 10 μM and response curves (Fig. 1a, Supplementary Fig. 1a)"}, "[2]": {"target": "T2, FLAG-UTS2R (urotensin-II receptor) (human) (UniProt Q9UKP6)", "T2 sequence": "T1 sequence (Q9UKP6 1-389)"}}}
{"molecule": "CC(C)[C@H](NC(=O)[C@@H]1CSSC[C@H](NC(=O)[C@H](CC(=O)O)NC(=O)[C@@H]2CCCN2C(=O)[C@@H](NC(=O)[C@@H](N)CCC(=O)O)[C@@H](C)O)C(=O)N[C@@H](Cc2ccccc2)C(=O)N[C@@H](Cc2c[nH]c3ccccc23)C(=O)N[C@@H](CCCCN)C(=O)N[C@@H](Cc2ccc(O)cc2)C(=O)N1)C(=O)O", "note": "[UT2]", "values": [{"measurement": "Emax", "setting": "[1]; WT UTS2R, without chimeric Gα protein, read-out: Emax", "value": "59 ± 0.7", "unit": "%"}, {"measurement": "activation at 0.1 µM", "setting": "[1]; compound concentration Log10 (M) -7, without urantide, read-out: UTS2R activation (%AP-TGFα release)", "value": 59.6, "unit": "%"}, {"measurement": "activation at 0.01 µM", "setting": "[1]; compound concentration Log10 (M) -8, without urantide, read-out: UTS2R activation (%AP-TGFα release)", "value": 60.1, "unit": "%"}, {"measurement": "activation at 0.001 µM", "setting": "[1]; compound concentration Log10 (M) -9, without urantide, read-out: UTS2R activation (%AP-TGFα release)", "value": 58.8, "unit": "%"}, {"measurement": "activation at 0.0001 µM", "setting": "[1]; compound concentration Log10 (M) -10, without urantide, read-out: UTS2R activation (%AP-TGFα release)", "value": 51.6, "unit": "%"}, {"measurement": "activation at 10 pM", "setting": "[1]; compound concentration Log10 (M) -11, without urantide, read-out: UTS2R activation (%AP-TGFα release)", "value": 18.4, "unit": "%"}]}
{"molecule": "C[C@H](NP(=O)(O)OC[C@H]1O[C@@](C#N)(c2ccc3c(N)ncnn23)[C@H](O)[C@@H]1O)C(=O)O", "note": "[GS-704277]", "values": [{"measurement": "UTS2R activation", "setting": "[1]", "value": "no effect on UTS2R activation"}]}
{"molecule": "N#C[C@@]1(c2ccc3c(N)ncnn23)O[C@H](CO)[C@@H](O)[C@H]1O", "note": "[GS-441524]", "values": [{"measurement": "UTS2R activation", "setting": "[1]", "value": "no effect on UTS2R activation"}]}
{"molecule": "ETPDCFWKYCV", "note": "[urotensin-II (UT2), endogenous peptidic ligand of UTS2R]", "values": [{"measurement": "TGFα-shedding assay (AP-TGFα release), untagged UTS2R in HEK293A cells: Emax of receptor activation by UT2 (%AP-TGFα release)", "setting": "[2]", "value": 59}, {"measurement": "TGFα-shedding assay (AP-TGFα release), untagged UTS2R in HEK293A cells: pEC50 of receptor activation by UT2", "setting": "[2]", "value": 10.7}]}
